Source: US8569336B2, “Compounds for the treatment of inflammatory disorders” (priority 2008, dated 2013)
Read-outs that look alike come from different tables or passages of the source.

Columns and labels:
[1] = test system: TNF-α production from human whole blood; assay: Inhibition of TNF-α production from human whole blood (hWBA), LPS stimulated, ELISA; assay type: cell-based; settings: Homo sapiens
[2] = biological target: T1, purified catalytic domain of recombinant human TACE (rhTACEc) (Homo sapiens, UniProt P78536, N452Q/S266A); assay: TACE kinetic assay: cleavage of internally quenched peptide substrate TNF-FRET 2 (Ki); assay type: biochemical; settings: TNF-FRET 2 substrate
T1 construct: 6xHis (C); made in house; host or cells: baculovirus/Hi5 insect cells
T1 sequence (P78536 215-477 S266A/N452Q): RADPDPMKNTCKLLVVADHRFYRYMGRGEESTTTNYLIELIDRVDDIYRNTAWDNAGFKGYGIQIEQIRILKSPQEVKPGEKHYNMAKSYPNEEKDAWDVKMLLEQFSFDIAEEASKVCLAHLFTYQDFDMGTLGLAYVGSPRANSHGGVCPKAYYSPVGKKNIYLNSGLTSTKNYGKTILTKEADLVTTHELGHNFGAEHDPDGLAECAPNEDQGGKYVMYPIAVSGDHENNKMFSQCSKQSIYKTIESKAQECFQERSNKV

[3] = 3.5 h, human whole blood diluted 1:1, LPS stimulated, 3.5 h, TNF-α by ELISA, read-out: hWBA (IC50)
[4] = human whole blood diluted 1:1, LPS stimulated, TNF-α by ELISA, read-out: hWBA (IC50)
[5] = LPS-stimulated human whole blood, TNF-α by ELISA, read-out: hWBA (IC50)

| SMILES | Ki ([2]; read-out: Ki) | IC50 [1, 4] | IC50 [1, 5] | other results |
| --- | --- | --- | --- | --- |
| COc1ccc2c(c1)C(=O)N(C[C@@]1(c3cc4cc(C(=O)NCCN(C)CCNC(=O)OC(C)(C)C)c(F)cc4o3)NC(=O)NC1=O)C2 [Compound 1278] | 1.8 nM | – | – | IC50 [1, 3]: 3.26 µM |
| COc1ccc2c(c1)C(=O)N(C[C@@]1(c3cc4nc(C(=O)NCCN(C)C)ccc4o3)NC(=O)NC1=O)C2 [Compound 1927] | 0.87 nM | – | 0.567 µM | – |
| COc1ccc2c(c1F)C(=O)N(C[C@@]1(c3cc4cc(-c5c(C)nn(C)c5C)c(F)cc4o3)NC(=O)NC1=O)C2 [Compound 1181] | 0.41 nM | – | 0.354 µM | – |
| COc1ccc2c(c1F)C(=O)N(C[C@@]1(c3ccco3)NC(=O)NC1=O)C2 [Compound 313] | 0.736 nM | – | 1.79 µM | – |
| COc1ccc2c(c1F)C(=O)N(C[C@@]1(c3cc4cc(-c5cc(=O)[nH]c(N)n5)ccc4o3)NC(=O)NC1=O)C2 [Compound 300] | 0.538 nM | – | 0.364 µM | – |
| COc1ccc2c(c1)C(=O)N(C[C@@]1(c3cc4ncc(C(=NO)N5CCN(c6cnccn6)CC5)cc4o3)NC(=O)NC1=O)C2 [Compound 1935] | – | – | 0.546 µM | – |
| CCOC(=O)[C@H]1CCC(=O)N1c1ccc2oc([C@]3(CN4Cc5ccc(OC)cc5C4=O)NC(=O)NC3=O)cc2n1 [Compound 1502] | – | – | 1.38 µM | – |
| CCN1CCN(c2ccc3oc([C@@]4(CN5Cc6ccc(OCC7CC7)c(F)c6C5=O)NC(=O)NC4=O)cc3n2)CC1 [Compound 901] | 501 nM | – | – | – |
| COc1ccc2c(c1)C(=O)N(C[C@@]1(c3cc4cc(N5CCNC5=O)ncc4o3)NC(=O)NC1=O)C2 [Compound 307] | – | – | 0.529 µM | – |
| CCN1CCN(c2ccc(O)c(-c3ccc([C@]4(CN5Cc6ccc(OC)cc6C5=O)NC(=O)NC4=O)cc3)n2)CC1 [Compound 902] | – | – | 1.51 µM | – |
| COCCN1CCN(c2ccc3oc([C@]4(CN5Cc6ccc(OC)cc6C5=O)NC(=O)NC4=O)cc3n2)CC1 [Compound 2160] | – | – | – | IC50 [1, 3]: 0.333 µM |
| CNC(=O)c1cnc2cc([C@]3(CN4Cc5ccc(OC)cc5C4=O)NC(=O)NC3=O)oc2c1 [Compound 1930] | – | – | – | Ki ([2]; Ki): 0.87 nM |
| COc1ccc2c(c1)C(=O)N(C[C@@]1(c3cc4cc(CNC(=O)N(C)C)ccc4o3)NC(=O)NC1=O)C2 [Compound 326] | – | – | 1.23 µM | – |
| CCN1CCN(C(=NO)c2cnc3cc([C@]4(CN5Cc6ccc(OC)cc6C5=O)NC(=O)NC4=O)oc3c2)CC1 [Compound 1934] | – | – | 0.342 µM | – |
| COCCNC(=O)c1cnc2cc([C@]3(CN4Cc5ccc(OC)cc5C4=O)NC(=O)NC3=O)oc2c1 [Compound 1933] | – | – | 0.657 µM | – |
| CCN1CCN(c2cc3cc([C@]4(CN5Cc6ccc(OC)cc6C5=O)NC(=O)NC4=O)oc3cn2)CC1 [Compound 308] | – | – | 0.343 µM | – |
| CCNC(=O)NCc1ccc2oc([C@]3(CN4Cc5ccc(OC)cc5C4=O)NC(=O)NC3=O)cc2c1 [Compound 325] | – | – | 1.99 µM | – |
| COC(=O)NCCNc1nc2cc([C@]3(CN4Cc5ccc(OC)c(F)c5C4=O)NC(=O)NC3=O)oc2cc1F [Compound 1319] | – | – | 0.252 µM | – |
| COC(=O)c1ccc2oc([C@]3(CN4Cc5ccc(OC)cc5C4=O)NC(=O)NC3=O)cc2n1 [Compound 1923] | – | – | 0.339 µM | – |
| COC(=O)CCNc1nc2cc([C@]3(CN4Cc5ccc(OC)c(F)c5C4=O)NC(=O)NC3=O)oc2cc1F [Compound 1921] | – | – | 0.239 µM | – |
| COc1ccc2c(c1)C(=O)N(C[C@@]1(c3cc4ncc(C(=O)NCCN(C)C)cc4o3)NC(=O)NC1=O)C2 [Compound 1932] | – | – | 0.8 µM | – |
| O=C1NC(=O)C(CN2Cc3ccccc3C2=O)(c2ccccc2)N1 (stereo not drawn) [Compound 1297] | 16.4 nM | – | – | – |
| COc1ccc2c(c1F)C(=O)N(C[C@]1(c3ccco3)NC(=O)NC1=O)C2 [Compound 312] | 501 nM | – | – | – |
| COc1ccc2c(c1)C(=O)N(C[C@@]1(c3cc4nc(-c5ccc(S(N)(=O)=O)cc5)ccc4o3)NC(=O)NC1=O)C2 [Compound 1528] | – | – | 2.69 µM | – |
| COc1ccc2c(c1)C(=O)N(C[C@@]1(c3cc4nc(NC(=O)c5cccnc5)ccc4o3)NC(=O)NC1=O)C2 [Compound 1947] | – | – | 0.537 µM | – |
| CNC(=O)c1cnc2cc([C@]3(CN4Cc5ccc(OC)cc5C4=O)NC(=O)NC3=O)oc2c1 [Compound 2461] | – | – | – | Ki ([2]; Ki): 0.871 nM |
| COc1ccc2c(c1F)C(=O)N(C[C@@]1(c3cc4cc(-c5c(C)nn(C)c5C)c(F)cc4o3)NC(=O)NC1=O)C2 [Compound 1182] | 0.41 nM | – | – | – |
| COc1ccc2c(c1F)C(=O)N(C[C@@]1(c3cc4nc(C)c(-c5ccc(N)nc5)cc4o3)NC(=O)NC1=O)C2 [Compound 1919] | – | – | – | IC50 ([1]; read-out: hWBA (IC50), LPS-stimulated human whole blood, TNF-α by ELISA): 0.308 µM |
| CCOC(=O)NCc1ccc2oc([C@]3(CN4Cc5ccc(OC)cc5C4=O)NC(=O)NC3=O)cc2c1 [Compound 324] | – | – | 1.69 µM | – |
| COc1ccc2c(c1)C(=O)N(C[C@@]1(c3ccc(-c4ccc(F)c(C#N)c4)cc3)NC(=O)NC1=O)C2 [Compound 1506] | 6.4 nM | – | – | – |

Further lines, with some results ahead:

| Ki ([2]; read-out: Ki) | IC50 [1, 4] | IC50 [1, 5] | SMILES | other results |
| --- | --- | --- | --- | --- |
| 0.51 nM | 0.393 µM | – | CCN1CCN(C(=NO)c2ccc3oc([C@]4(CN5Cc6ccc(OC)cc6C5=O)NC(=O)NC4=O)cc3c2)CC1 [Compound 2453] | – |
| 6.54 nM | – | – | COc1ccc2c(c1)C(=O)N(C[C@@]1(c3cc4c(o3)CCNC4)NC(=O)NC1=O)C2 [Compound 2262] | IC50 [1, 3]: ≥ 1 µM |
| 2.51 nM | – | – | COc1ccc2c(c1)C(=O)N(C[C@@]1(c3cc4cc(CC(N)=O)ccc4o3)NC(=O)NC1=O)C2 [Compound 2209] | IC50 [1, 3]: 0.542 µM |
| 3.15 nM | 1.71 µM | – | COc1ccc2c(c1)C(=O)N(C[C@@]1(c3ccc(C(=O)O)cc3)NC(=O)NC1=O)C2 [Compound 2404] | – |
| 0.72 nM | 10 µM | – | COc1ccc2c(c1)C(=O)N(C[C@@]1(c3cc4c(-c5cccc(C#N)c5)nccc4o3)NC(=O)NC1=O)C2 [Compound 2430] | – |
| 0.888 nM | – | – | COc1ccc2c(c1)C(=O)N(C[C@@]1(c3cc4nc(Nc5ccccn5)ccc4o3)NC(=O)NC1=O)C2 [Compound 2128] | IC50 [1, 3]: 1.91 µM |
| 0.578 nM | 3.42 µM | – | CNc1cc2oc([C@]3(CN4Cc5ccc(OC)cc5C4=O)NC(=O)NC3=O)cc2cn1 [Compound 2291] | – |
| 0.422 nM | 0.268 µM | – | COc1ccc2c(c1)C(=O)N(C[C@@]1(c3cc4cnc(N)cc4o3)NC(=O)NC1=O)C2 [Compound 2282] | – |
| 0.35 nM | – | – | COc1ccc2c(c1)C(=O)N(C[C@@]1(c3cc4cc(-c5cncc(O)c5)ncc4o3)NC(=O)NC1=O)C2 [Compound 2244] | IC50 [1, 3]: 0.365 µM |
| 0.375 nM | 0.542 µM | – | COc1ccc2c(c1)C(=O)N(C[C@@]1(c3cc4[nH]c(=O)ccc4o3)NC(=O)NC1=O)C2 [Compound 2317] | – |
| 0.67 nM | 0.35 µM | – | COc1ccc2c(c1)C(=O)N(C[C@@]1(c3cc4cc(C(=NO)N5CCCN(C)CC5)ccc4o3)NC(=O)NC1=O)C2 [Compound 2452] | – |
| 0.57 nM | 0.834 µM | – | COc1ccc2c(c1Cl)C(=O)N(C[C@@]1(c3cc4cnccc4o3)NC(=O)NC1=O)C2 [Compound 2306] | – |
| 1.3 nM | 1.97 µM | – | COc1ccc2c(c1)C(=O)N(C[C@@]1(c3ccc(C(N)=O)cc3)NC(=O)NC1=O)C2 [Compound 2403] | – |
| 0.345 nM | – | – | COc1ccc2c(c1)C(=O)N(C[C@@]1(c3cc4cc(-c5cn[nH]c5)ccc4o3)NC(=O)NC1=O)C2 [Compound 2201] | IC50 [1, 3]: 0.294 µM |
| 0.429 nM | 0.575 µM | – | COc1ccc2c(c1)C(=O)N(C[C@@]1(c3cc4cnc(C5CC5)cc4o3)NC(=O)NC1=O)C2 [Compound 2287] | – |
| 1.08 nM | – | – | COc1ccc2c(c1)C(=O)N(C[C@@]1(c3cc4cc(-c5cc(O)n[nH]5)cnc4o3)NC(=O)NC1=O)C2 [Compound 2275] | IC50 [1, 3]: 0.491 µM |

| Ki ([2]; read-out: Ki) | IC50 [1, 4] | IC50 [1, 5] | SMILES | other results |
| --- | --- | --- | --- | --- |
| 1.32 nM | 0.485 µM | – | COc1ccc2c(c1)C(=O)N(C[C@@]1(c3cc4c(N5CCNC5=O)nccc4o3)NC(=O)NC1=O)C2 [Compound 2292] | – |
| 0.095 nM | – | – | COc1ccc2c(c1)C(=O)N(C[C@@]1(c3cc4cc(C5(C)CNC(=O)N5)cc(C)c4o3)NC(=O)NC1=O)C2 (stereo partly drawn) [Compound 2212] | IC50 [1, 3]: 2.86 µM |
| – | 0.497 µM | – | COc1ccc2c(c1)C(=O)N(C[C@@]1(c3cc4c(o3)CCN(S(C)(=O)=O)C4)NC(=O)NC1=O)C2 [Compound 2438] | – |
| – | 0.322 µM | – | COc1ccc2c(c1F)C(=O)N(C[C@@]1(c3cc4cc5c(cc4o3)C(=O)NCCC5)NC(=O)NC1=O)C2 [Compound 2492] | – |
| – | 0.537 µM | – | COc1ccc2c(c1)C(=O)N(C[C@@]1(c3cc4nc(NC(=O)c5cccnc5)ccc4o3)NC(=O)NC1=O)C2 [Compound 2313] | – |
| – | 0.309 µM | – | CCNC(=O)N1CCc2oc([C@]3(CN4Cc5ccc(OC)cc5C4=O)NC(=O)NC3=O)cc2C1 [Compound 2442] | – |
| – | 0.759 µM | – | COc1ccc2c(c1)C(=O)N(C[C@@]1(c3cc4cnc(C#N)cc4o3)NC(=O)NC1=O)C2 [Compound 2444] | – |
| – | 0.189 µM | – | COc1ccc2c(c1)C(=O)N(C[C@@]1(c3cc4nc(NS(C)(=O)=O)ccc4o3)NC(=O)NC1=O)C2 [Compound 2315] | – |
| – | 0.646 µM | – | COc1ccc2c(c1)C(=O)N(C[C@@]1(c3cc4c(o3)CCN(C(N)=O)C4)NC(=O)NC1=O)C2 [Compound 2440] | – |
| – | 0.501 µM | – | COc1ccc2c(c1)C(=O)N(C[C@@]1(c3cc4c(o3)CCN(C(=O)N(C)C)C4)NC(=O)NC1=O)C2 [Compound 2441] | – |
| – | 0.8 µM | – | COc1ccc2c(c1)C(=O)N(C[C@@]1(c3cc4ncc(C(=O)NCCN(C)C)cc4o3)NC(=O)NC1=O)C2 [Compound 2465] | – |
| – | 0.672 µM | – | CCNC(=O)Nc1ccc2oc([C@]3(CN4Cc5ccc(OC)cc5C4=O)NC(=O)NC3=O)cc2n1 [Compound 2316] | – |
| – | 0.704 µM | – | CCOC(=O)N1CCc2cc([C@]3(CN4Cc5ccc(OC)cc5C4=O)NC(=O)NC3=O)oc2C1 [Compound 2439] | – |
| – | ≥ 1000 µM | – | COc1ccc2c(c1)C(=O)N(C[C@@]1(c3cc4c(o3)CCN(C(=O)Nc3cccnc3)C4)NC(=O)NC1=O)C2 [Compound 2443] | – |
| – | 2.69 µM | – | COc1ccc2c(c1)C(=O)N(C[C@@]1(c3cc4nc(-c5ccc(S(N)(=O)=O)cc5)ccc4o3)NC(=O)NC1=O)C2 [Compound 2490] | – |
